The assay deals with T1, human muscarinic receptors M3 (Homo sapiens, UniProt P20309).
T1 construct: expressed in transfected cells; host or cells: CHO-K1 (chinese hamster ovary-K1), stably transfected; membrane preparations
The assay can be described thus: biochemical. The following applies: for inhibition at 0.1 µM: read-out: % INHIBITION concentration: 1.00E−07 M; for inhibition at 0.01 µM: read-out: % INHIBITION concentration: 1.00E−08 M. The assay is classed as binding.

Among the data in US7122558B2 (priority 2000, dated 2006) are inhibition values, retold here.

Structures are written as SMILES. Counter-ions that a name gives are not always drawn.

T1 sequence (P20309 whole entry): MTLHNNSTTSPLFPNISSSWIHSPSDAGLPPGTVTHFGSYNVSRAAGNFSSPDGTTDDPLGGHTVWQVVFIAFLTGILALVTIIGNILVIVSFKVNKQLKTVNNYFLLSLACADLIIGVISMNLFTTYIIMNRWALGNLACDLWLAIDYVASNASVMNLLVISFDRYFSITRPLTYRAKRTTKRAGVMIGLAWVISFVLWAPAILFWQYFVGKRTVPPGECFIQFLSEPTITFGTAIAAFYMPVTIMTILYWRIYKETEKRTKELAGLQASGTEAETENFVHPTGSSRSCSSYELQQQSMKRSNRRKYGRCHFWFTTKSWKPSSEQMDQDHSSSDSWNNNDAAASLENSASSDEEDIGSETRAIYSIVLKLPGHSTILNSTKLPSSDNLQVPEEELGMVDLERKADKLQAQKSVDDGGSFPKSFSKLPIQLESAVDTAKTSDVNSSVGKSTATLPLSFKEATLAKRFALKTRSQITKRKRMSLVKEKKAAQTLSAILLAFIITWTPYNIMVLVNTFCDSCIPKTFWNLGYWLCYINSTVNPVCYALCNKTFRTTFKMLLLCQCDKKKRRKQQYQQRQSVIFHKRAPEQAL

With `COc1ccc(OCCC[N+]23CCC(CC2)[C@@H](OC(=O)[C@](O)(c2cccs2)C2CCCC2)C3)cc1` [Example 44, (3R)-3-[(2S)-2-Cyclopentyl-2-hydroxy-2-thien-2-ylacetoxy]-1-[3-(4-methoxyphenoxy)propyl]-1-azoniabicyclo[2.2.2]octane trifluoroacetate], the inhibition at 0.1 µM was found to be 84.6% and the inhibition at 0.01 µM is 44.6%.
For `O=C(O[C@H]1C[N+]2(CCCc3ccccc3)CCC1CC2)[C@](O)(c1cccs1)C1CCCC1` [Example 26, (3R)-3-[(2S)-2-Cyclopentyl-2-hydroxy-2-thien-2-ylacetoxy]-1-(3-phenylpropyl)-1-azoniabicyclo[2.2.2]octane trifluoroacetate], the inhibition at 0.1 µM worked out at 75.6% and the inhibition at 0.01 µM was found to be 63.8%.
For `O=C(O[C@H]1C[N+]2(CCCOc3ccccc3)CCC1CC2)[C@](O)(c1ccccc1)C1CCCC1` [Example 82, (3R)-3-[(2R)-2-Cyclopentyl-2-hydroxy-2-phenylacetoxy]-1-(3-phenoxypropyl)-1-azoniabicyclo[2.2.2]octane trifluoroacetate], in that order: 70.6% and 55.3%.
On to `O=C(O[C@H]1C[N+]2(CCCSc3ccccc3)CCC1CC2)[C@](O)(c1cccs1)C1CCCC1` [Example 37, (3R)-3-[(2S)-2-Cyclopentyl-2-hydroxy-2-thien-2-ylacetoxy]-1-(3-phenylsulfanylpropyl)-1-azoniabicyclo[2.2.2]octane trifluoroacetate], for which the inhibition at 0.1 µM came to 88.1% and the inhibition at 0.01 µM amounted to 72.6%.
In the case of `O=C(O[C@H]1C[N+]2(CCCc3ccccc3)CCC1CC2)[C@](O)(c1ccco1)C1CCCCC1` [Example 81, (3R)-3-[(2R)-2-Cyclohexyl-2-fur-2-yl-2-hydroxyacetoxy]-1-(3-phenylpropyl)-1-azoniabicyclo[2.2.2]octane trifluoroacetate], the inhibition at 0.1 µM worked out at 70.1% and the inhibition at 0.01 µM amounted to 45.4%.
For `O=C(O[C@H]1C[N+]2(CCc3ccccc3)CCC1CC2)[C@](O)(c1ccccc1)C1CCCCC1` [Example 70, (3R)-3-[(2R)-2-Cyclohexyl-2-hydroxy-2-phenylacetoxy]-1-phenethyl-1-azoniabicyclo[2.2.2]octane trifluoroacetate], in that order: 71.2% and 50%.
Consider `O=C(O[C@H]1C[N+]2(CCc3ccccc3)CCC1CC2)[C@@](O)(c1ccccc1)C1CCCC1` [Example 86, (3R)-3-[(2S)-2-Cyclopentyl-2-hydroxy-2-phenylacetoxy]-1-phenethyl-1-azoniabicyclo[2.2.2]octane trifluoroacetate], for which the inhibition at 0.1 µM stood at 68.2% and the inhibition at 0.01 µM was found to be 37.2%.
For `O=C(O[C@H]1C[N+]2(CCc3ccccc3)CCC1CC2)[C@](O)(c1cccs1)C1CCCCC1` [Example 89, (3R)-3-[(2S)-2-Cyclohexyl-2-hydroxy-2-thien-2-ylacetoxy]-1-phenethyl-1-azoniabicyclo[2.2.2]octane trifluoroacetate], in that order: 68.5% and 51.3%.
As for `O=C(O[C@H]1C[N+]2(CCCc3cccs3)CCC1CC2)[C@](O)(c1ccccc1)C1CCCCC1` [Example 69, (3R)-3-[(2R)-2-Cyclohexyl-2-hydroxy-2-phenylacetoxy]-1-(3-thien-2-ylpropyl)-1-azoniabicyclo[2.2.2]octane trifluoroacetate], the inhibition at 0.1 µM is 70.8% and the inhibition at 0.01 µM stood at 43.9%.
With `O=C(O[C@H]1C[N+]2(CCCOc3ccccc3)CCC1CC2)[C@](O)(c1cccs1)C1CCCCC1` [Example 88, (3R)-3-[(2S)-2-Cyclohexyl-2-hydroxy-2-thien-2-ylacetoxy]-1-(3-phenoxypropyl)-1-azoniabicyclo[2.2.2]octane trifluoroacetate], the inhibition at 0.1 µM is 65.5% and the inhibition at 0.01 µM amounted to 35.7%.
